In patent US5977156A (priority 1996, dated 1999):
Converted amounts (≈) assume the structure as drawn. Read-outs that look alike come from different tables or passages of the source.

Tests used:
[1] = system: Rhizoctonia solani (sheath blight); experiment: Rice seed treatment field trial, attack type 1 (sheath blight); assay type: in vivo, also called Pellicularia sasakii; settings: vs insecticide-treated control plots, after 2 months
[2] = system: Helminthosporium oryzae (brown spot); experiment: Rice seed treatment field trial, attack type 2 (brown spot); assay type: in vivo, also called Cochliobolus miyabeanus; settings: vs insecticide-treated control plots, after 2 months
[3] = system: Pyricularia oryzae (leaf blast); assay type: in vivo, also called Magnaporthe grisae; settings: vs insecticide-treated control plots, after 2 months
[4] = system: Pyricularia oryzae (neck blast); assay type: in vivo; settings: vs insecticide-treated control plots, after 2 months
[5] = system: Rhynchosporium oryzae (leaf scald); experiment: Rice seed treatment field trial, attack type 5 (leaf scald = leaf tip blight); assay type: in vivo; settings: vs insecticide-treated control plots, after 2 months
[6] = system: Sheath rot (Acrocylindrium oryzae and/or Gaeumannomyces graminis and/or Helminthosporium oryzae); experiment: Rice seed treatment field trial, attack type 6 (sheath rot); assay type: in vivo; settings: vs insecticide-treated control plots, after 2 months
[7] = system: Grain discoloration (Pseudomonas spp., Erwinia herbicola, Helminthosporium oryzae and/or Alternaria spp.); experiment: Rice seed treatment field trial, attack type 7 (grain discoloration); assay type: in vivo; settings: vs insecticide-treated control plots
[8] = system: Sphacelotheca reiliana; experiment: Maize seed treatment against head smut; assay type: in vivo; settings: maize (Adonis), 250 g/100 kg seeds, 3 months after sowing
Procedure: This example illustrates application against head smut (Sphacelotheca reiliana).
Maize seeds (variety Adonis) were treated in the proportion of 250 g of active material per 100 kg of seeds.
These seeds are sown in 9×9 cm pots filled with a mixture of compost and coarse sand which has been pre-infected by incorporation of Sphacelotheca reiliana spores according to 2 infectious doses: […] of substrate. Each pot contains 5 maize seeds.
These pots are then placed under glass on sand kept moist by regular sprinkling, at a temperature of 20° C. and a relative humidity of 60%.
Three months after sowing, the seedlings carrying the disease (presence or absence of smut in the maize inflorescences) are counted and the results shown in the table below (expressed as percentage) are obtained. The control seedlings correspond to pots filled with a substrate infected with the disease in which untreated maize seeds have been sown.

[9] = system: Fusarium moniliforme; experiment: Maize seed treatment against root rot; assay type: in vivo; settings: maize (Pinnacle), control 92
Procedure: This example illustrates application against root rot (Fusarium moniliforme).
Maize seeds (variety Pinnacle) were treated in the proportion of 125 and 250 g of active material per 100 kg of seeds.
These seeds are sown in 7×7 cm pots filled with vermiculite in the proportion of 5 seeds per pot. Infection is carried out by introducing, into the vicinity of the seeds, in the upper part of the substrate, 10 ml of an aqueous suspension containing 400000 spores of Fusarium moniliforme per ml.
These pots are then maintained at 80% humidity for 3 weeks at 8° C. and then for 2 weeks at 16° C.
The seedlings carrying the disease (unemerged seedlings and seedlings with slowed and deformed growth) are then counted and the results shown in the table below (expressed as percentage) were obtained. The control seedlings correspond to pots in which untreated maize seeds have been sown, which seeds have been infected with the disease.

[10] = system: Microdochium nivale; experiment: Wheat seed treatment against snow mould; assay type: in vivo; settings: wheat (Ixos), naturally infected, control 96
Procedure: This example illustrates application against snow mould (Microdochium nivale).
Wheat seeds (variety Ixos), naturally infected with Microdochium nivale, were treated in the proportion of 5, 10, 25, 50 and 100 g of active material per 100 kg of seeds.
(§1) These seeds are sown in 7×7 cm pots filled with a peat/pozzolana mixture in the proportion of 25 seeds per pot.
These pots are maintained at 5° C. and in darkness for 3 weeks and are then placed at 10° C. under artificial light for 1 week. They are finally placed under glass, on sand kept moist by regular sprinkling, at 20° C. and 60% relative humidity for 1 week.
The seedlings carrying the disease (unemerged seedlings and deformed seedlings) are then counted and the results shown in the table below (expressed as percentage) are obtained. The control seedlings correspond to pots in which wheat seeds, naturally infected with the disease, have been sown, which seeds have not been treated.

[11] = system: Puccinia recondita forma speciae tritici; experiment: Wheat seed treatment against brown rust; assay type: in vivo; settings: wheat (Theseus), infected foliar area, control 61
Procedure: EXAMPLE 8 This example illustrates application against brown rust of wheat (Puccinia recondita forma speciae tritici).
Wheat seeds (variety Theseus) were treated in the proportion of 10, 25, 50 and 100 g of active material per 100 kg of seeds.
These seeds are sown in 7×7 cm pots filled with a peat/pozzolana mixture in the proportion of 40 to 50 seeds per pot.
These pots are maintained at 10° C. under artificial light for 3 weeks, so that they arrive at the growth stage known as the 1-2-leaf stage.
Infection is then carried out by spraying an aqueous suspension containing 100000 spores of Puccinia recondita per ml.
The pots are then placed at 20° C. and 100% relative humidity for 24 hours and then under glass, on sand kept moist by regular sprinkling, at 20° C. and 80% relative humidity for 10 days.
The infected foliar area of the 1st leaf is then quantified visually.
The results shown in the table below (expressed as percentage) are obtained. The control seedlings correspond to pots in which untreated wheat seeds have been sown, which seeds have been infected by the disease.

[12] = system: Pyrenophora graminea; experiment: Barley seed treatment against leaf stripe; assay type: in vivo; settings: barley (Agneta), naturally infected, 100 g/100 kg seeds
Procedure: This example illustrates application against leaf stripe (Pyrenophora graminea).
Barley seeds (variety Agneta), naturally infected with Pyrenophora graminea, were treated in the proportion of 100 g of active material per 100 kg of seeds.
as §1
These pots are maintained at 5° C. and in darkness for 3 weeks and are then placed at 10° C. under artificial light for 1 week. They are finally placed under glass, on sand kept moist by regular sprinkling, at 20° C. and 60% relative humidity for 3 weeks.
The seedlings carrying the disease (seedlings carrying off-white streaks along the leaves) are then counted and the following results (expressed as percentage) are obtained. The control seedlings correspond to pots in which barley seeds, naturally infected with the disease, have been sown, which seeds have not been treated. Two successive tests were carried out.

[13] = system: Rhizoctonia solani; experiment: Cotton seed treatment against damping off; assay type: in vivo; settings: cotton (DP 50), 17 days; for Total damping off (in %): pre-+post-emergence, control 80; for Pre-emergence damping off (in %): control 70
Procedure: This example illustrates application against damping off (Rhizoctonia solani).
Cotton seeds (variety DP 50) were treated in the proportion of 125, 250 and 500 g of active material per 100 kg of seeds.
These seeds are sown in 7×7 cm pots filled with a peat/pozzolana mixture which has been pre-infected by incorporation of 1 part of an aqueous suspension containing milled Rhizoctonia solani mycelium in 1600 parts of substrate. Each pot contains 5 cotton seeds.
These pots are then placed under glass at a temperature of 25° C. and at a relative humidity of 80% for 17 days.
The results with respect to early damping off (pre-emergence) and with respect to all the damping off attacks (pre-+post-emergence) are shown in the table below (expressed as percentage). The control seedlings correspond to pots filled with a substrate infected with the disease in which untreated cotton seeds have been sown.

[14] = system: Coniophora puteana; experiment: Inhibition of growth of wood-degrading fungus on agar; assay type: cell-based; settings: agar culture medium, 20° C., read-out: IC50 (50% inhibition of the growth of the fungus)
Procedure: (§2) This example illustrates application against fungi which degrade wood.
(§3) Agar culture medium containing different doses of the active material to be tested is introduced into petri dishes.
(§4) Petri dishes with the same culture medium without the active material are prepared in order to act as control.
(§5) One day after the preparation of these petri dishes, agar implants supporting a fungal culture are deposited at the center of each petri dish. The fungi tested are: Serpula lacrymans, Coniophora puteana (dry and wet rots) and Gleophyllum trabeum.
(§6) The petri dishes are then placed at 20° C. until the results are recorded. The results are read when the untreated control culture has colonized virtually all the dish. The diameter of the fungal cultures is then measured and the concentration of active material causing 50% inhibition of the growth of the fungus (called the IC50) is calculated.

[15] = system: Gloeophyllum trabeum; experiment: as above; assay type: cell-based; settings: agar culture medium, 20° C., read-out: IC50 (50% inhibition of the growth of the fungus)
Procedure: as §2, §3, §4, §5, §6

[16] = system: Serpula lacrymans; experiment: as above; assay type: cell-based; settings: agar culture medium, 20° C., read-out: IC50 (50% inhibition of the growth of the fungus)
Procedure: as §2, §3, §4, §5, §6

[17] = Ex. 1: 40 g/100 kg rice seed, 150 kg/ha
[18] = Ex. 2: 40 g/100 kg rice seed, 200 kg/ha
[19] = Ex. 3: 40 g/100 kg rice seed, 150 kg/ha, pregerminated
[20] = Ex. 4: 40 g/100 kg rice seed, 200 kg/ha, pregerminated

N#Cc1nn(-c2c(Cl)cc(C(F)(F)F)cc2Cl)c(N)c1[S+]([O-])C(F)(F)F (stereo not shown) [Compound A, 5-amino-3-cyano-1-(2,6-dichloro-4-trifluoromethyl)phenyl-4-trifluoromethylsulfinylpyrazole]
number of sheaths attacked; result observed, expressed as percentage [1, 17]: 55 percentage | number of sheaths attacked; result observed, expressed as percentage [1, 18]: 60 percentage | number of sheaths attacked; result observed, expressed as percentage [1, 19]: 55 percentage | number of sheaths attacked; result observed, expressed as percentage [1, 20]: 60 percentage | area of leaves attacked; result observed, expressed as percentage [2, 17]: 79 percentage | area of leaves attacked; result observed, expressed as percentage [2, 18]: 87 percentage | area of leaves attacked; result observed, expressed as percentage [2, 19]: 79 percentage | area of leaves attacked; result observed, expressed as percentage [2, 20]: 87 percentage | number of sheaths attacked; result observed, expressed as percentage [3, 17]: 82 percentage | number of sheaths attacked; result observed, expressed as percentage [3, 18]: 90 percentage | number of sheaths attacked; result observed, expressed as percentage [3, 19]: 82 percentage | number of sheaths attacked; result observed, expressed as percentage [3, 20]: 90 percentage | number of plants attacked just below the ear; result observed, expressed as percentage [4, 17]: 35 percentage | number of plants attacked just below the ear; result observed, expressed as percentage [4, 18]: 39 percentage | number of plants attacked just below the ear; result observed, expressed as percentage [4, 19]: 35 percentage | number of plants attacked just below the ear; result observed, expressed as percentage [4, 20]: 39 percentage | number of leaves having a withered part; result observed, expressed as percentage [5, 17]: 57 percentage | number of leaves having a withered part; result observed, expressed as percentage [5, 18]: 63 percentage | number of leaves having a withered part; result observed, expressed as percentage [5, 19]: 57 percentage | number of leaves having a withered part; result observed, expressed as percentage [5, 20]: 63 percentage | number of sheaths attacked; result observed, expressed as percentage [6, 17]: 80 percentage | number of sheaths attacked; result observed, expressed as percentage [6, 18]: 88 percentage | number of sheaths attacked; result observed, expressed as percentage [6, 19]: 80 percentage | number of sheaths attacked; result observed, expressed as percentage [6, 20]: 88 percentage | number of grains in which the normal yellow color is replaced by brown blemishes; result observed, expressed as percentage [7, 17]: 63 percentage | number of grains in which the normal yellow color is replaced by brown blemishes; result observed, expressed as percentage [7, 18]: 70 percentage | number of grains in which the normal yellow color is replaced by brown blemishes; result observed, expressed as percentage [7, 19]: 63 percentage | number of grains in which the normal yellow color is replaced by brown blemishes; result observed, expressed as percentage [7, 20]: 70 percentage | Number of diseased seedlings (in %) ([8]; infectious dose 0.125 g/kg, control 67): 46% | Number of diseased seedlings (in %) ([8]; infectious dose 0.25 g/kg, control 71): 40% | Number of diseased seedlings (in %) ([9]; 125 g/100 kg seeds): 72% | Number of diseased seedlings (in %) ([9]; 250 g/100 kg seeds): 76% | Number of diseased seedlings (in %) ([10]; 5 g/100 kg seeds): 89% | Number of diseased seedlings (in %) ([10]; 10 g/100 kg seeds): 82% | Number of diseased seedlings (in %) ([10]; 25 g/100 kg seeds): 89% | Number of diseased seedlings (in %) ([10]; 50 g/100 kg seeds): 85% | Number of diseased seedlings (in %) ([10]; 100 g/100 kg seeds): 80% | Infection of the 1st leaf (in %) ([11]; 10 g/100 kg seeds): 47% | Infection of the 1st leaf (in %) ([11]; 25 g/100 kg seeds): 37% | Infection of the 1st leaf (in %) ([11]; 50 g/100 kg seeds): 17% | Infection of the 1st leaf (in %) ([11]; 100 g/100 kg seeds): 2% | Number of diseased seedlings (in %) ([12]; Test No. 1, control 50): 34% | Number of diseased seedlings (in %) ([12]; Test No. 2, control 44): 29% | Total damping off (in %) ([13]; 125 g/100 kg seeds): 50% | Pre-emergence damping off (in %) ([13]; 125 g/100 kg seeds): 45% | Total damping off (in %) ([13]; 250 g/100 kg seeds): 60% | Pre-emergence damping off (in %) ([13]; 250 g/100 kg seeds): 45% | Total damping off (in %) ([13]; 500 g/100 kg seeds): 50% | Pre-emergence damping off (in %) ([13]; 500 g/100 kg seeds): 10% | IC50 [14]: 16.3 µg/mL (≈ 37.3 µM) | IC50 [15]: 0.3 µg/mL (≈ 0.686 µM) | IC50 [16]: 14.5 µg/mL (≈ 33.2 µM)
